Source: patent publication US4920106A, “Acetylenic cyclic carbonates” (Merck & Co., Inc., priority 1989, dated 1990)
≈ marks a conversion by molar mass, not a printed value.

Columns and labels:
Candida albicans MY 1055 = test: Antifungal Assay (minimum inhibitory concentration, Candida albicans MY 1055); format: cell-based; details: Yeast Nitrogen Base/0.5% glucose; inoculum 3-5×10^-4 CFU/ml; 37° C., 18 hours; lowest concentration that inhibits visible growth
Procedure: Antifungal activity was determined against Candida albicans MY 1055, a yeast strain maintained by Merck and Co., Rahway, New Jersey. Minimum inhibitory concentrations were determined using a starting inoculum of 3-5×10^-4 CFU/ml. The medium was Yeast Nitrogen Base/0.5% glucose. Test compounds were dissolved in a minimum amount of 50% aqueous ethanol and diluted to final concentrations with yeast medium. Samples were incubated at 37° C. for 18 hours. The minimum inhibitory concentration (MIC), reported in μg/ml, is the lowest concentration of test compound that inhibits visible growth.

[1] = target: T1, Acetoacetyl-coenzyme A thiolase (Rattus norvegicus, UniProt Q5XI22); test: Acetoacetyl-Coenzyme A Thiolase Inhibition; format: biochemical, Sprague Dawley rats; details: Table II; text: IC50, concentration that inhibits 50% of thiolase activity; enzyme from livers of lovastatin-treated rats; pH 7.5, room temperature, 340 nm NADH oxidation; read-out: MIC
T1 construct: prepared from the livers of Sprague Dawley rats treated in the diet for one week with 0.075% lovastatin to induce the enzyme; from tissue; host or cells: liver of lovastatin-fed Sprague Dawley rats
T1 sequence (Q5XI22 whole entry): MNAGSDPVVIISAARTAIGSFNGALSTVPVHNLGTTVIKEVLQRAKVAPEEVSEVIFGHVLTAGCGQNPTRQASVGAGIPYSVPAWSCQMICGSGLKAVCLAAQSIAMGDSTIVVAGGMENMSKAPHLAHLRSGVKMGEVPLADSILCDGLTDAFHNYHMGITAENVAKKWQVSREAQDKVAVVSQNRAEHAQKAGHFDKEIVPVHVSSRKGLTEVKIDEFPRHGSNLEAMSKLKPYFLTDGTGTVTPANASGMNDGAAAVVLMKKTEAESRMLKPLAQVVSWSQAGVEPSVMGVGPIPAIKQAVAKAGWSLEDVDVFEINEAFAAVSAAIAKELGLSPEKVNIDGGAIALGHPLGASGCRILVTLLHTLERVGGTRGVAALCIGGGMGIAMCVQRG
Procedure: Acetoacetyl-coenzyme A thiolase was prepared from the livers of Sprague Dawley rats treated in the diet for one week with 0.075% lovastatin to induce the enzyme. Acetoacetyl-coenzyme A thiolase was purified through the DEAE-cellulose step essentially as described by Mehrabian et al., J. Biol. Chem., 261, 16249-16255 (1986), but modified slightly by carrying out the 30-50% ammonium sulfate precipitation of the enzyme and a dialysis before the DEAE-cellulose step. The 0.06M eluate described by Mehrabian et al. contained the acetoacetyl-coenzyme A thiolase. The isolate was concentrated by ammonium sulfate precipitation, dissolved in the buffer used for elution, and stored at -70° C.
Inhibition of acetoacetyl-coenzyme A thiolase was measured by coupling the formation of acetoacetyl-coenzyme A to its subsequent reduction by β-hydroxybutyryl-coenzyme A dehydrogenase to β-hydroxybutyryl-coenzyme A and monitoring the resultant oxidation of NADH with a spectrophotometer set at 340 nm. […] Reaction was measured at room temperature for a time period necessary to produce a measurable reaction rate. […]

[2] = system: certain bacterial strains; details: background statement; cited from earlier work
certain fungal strains = details: background statement; cited from earlier work
cytosolic β-ketothiolase = details: background statement; cited from earlier work
[3] = background statement; cited from earlier work

Row | Compound | MIC (Candida albicans MY 1055) [µg/mL] | IC50 [1] [nM] | active against certain bacterial strains [2] | active against certain fungal strains (certain fungal strains) | inhibitor of cytosolic β-ketothiolase (cytosolic β-ketothiolase) | instability of the compound in vivo [3]
1 | COC(=O)CCCCCC[C@@H]1OC(=O)O[C@H]1C(O)C#CC#CC#C[Si](C)(C)C (single isomer, unassigned) [Ex. 6] | 0.6 (≈ 1.48 µM) |  |  |  |  | 
2 | CC#CC#CC#C[C@@H](OC)[C@@H]1OC(=O)O[C@H]1CCCCCCC(=O)OC [Ex. 13, 5-(1(R)-Methoxy-2,4,6-octatriynyl)-2-oxo-4(S),5(S)-1,3-dioxolane-4-heptanoic acid, methyl ester] | 5 (≈ 13.9 µM) | 560 |  |  |  | 
3 | C#CC#CC#CC(O)C1OC(=O)OC1CCCCCCC(=O)O (stereo not shown) [triyne carbonate A, 5-(1-hydroxy-2,4,6-heptatriynyl)-2-oxo-1,3-dioxolane-4-heptanoic acid] |  |  | active | active | potent inhibitor | relative instability
